Experimental data reported in doi:10.1101/2025.11.20.689572v1 (biorxiv, 2025).

Assays:
[1] = molecular target: T1, M4 (Homo sapiens, UniProt P08173); experiment: competitive radioligand binding, HEK293 membranes
T1 construct: gene CHRM4; full-length receptor; HEK293 with TRUPATH sensors (function)
T1 sequence (P08173 1-479): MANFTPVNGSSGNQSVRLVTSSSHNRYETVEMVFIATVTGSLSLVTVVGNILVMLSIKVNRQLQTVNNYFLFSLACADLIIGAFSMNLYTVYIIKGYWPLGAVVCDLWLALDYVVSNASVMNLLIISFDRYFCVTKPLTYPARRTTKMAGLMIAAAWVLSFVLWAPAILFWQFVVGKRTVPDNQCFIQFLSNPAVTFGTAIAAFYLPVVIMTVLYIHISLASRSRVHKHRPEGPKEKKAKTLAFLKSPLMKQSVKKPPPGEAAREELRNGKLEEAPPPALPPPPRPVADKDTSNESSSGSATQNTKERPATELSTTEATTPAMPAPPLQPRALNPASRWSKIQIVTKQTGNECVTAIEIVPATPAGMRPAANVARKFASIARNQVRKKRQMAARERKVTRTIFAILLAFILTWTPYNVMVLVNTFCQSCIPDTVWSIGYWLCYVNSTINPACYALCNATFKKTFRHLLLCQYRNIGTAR

[2] = molecular target: DRD1 (Homo sapiens, UniProt P21728); experiment: biochemical; design: species or system HEK293; PDSP competitive radioligand binding, membranes of transfected HEK293 cells, filtration, Ki by Cheng-Prusoff; settings: read-out: N-desmethyl-xanomeline (PDSP) pKi (converted)
Procedure: (§1) Competitive radioligand binding assays were performed at the NIMH Psychoactive Drug Screening Program (PDSP) using membranes from transiently transfected HEK293 cells in 96-well format as described. Complete, target-specific protocols are available at the PDSP website (https://pdsp.unc.edu/pdspweb/?site=assays). Primary screenings were run at a single test concentration (10 µM) in quadruplicate. […] Secondary assays were conducted in triplicate using 12-point serial dilutions (0, 0.1, 0.3, 1, 3, 10, 30, 100, 300 nM; 1, 3, 10 µM). Assays were performed in a final volume of 125 µL per well in binding buffer, as detailed in the NIMH PDSP protocols (e.g., standard binding buffer: 50 mM Tris-HCl, pH 7.4, 10 mM MgCl2, 0.1 mM EDTA). Radioligand concentrations were chosen near the target-specific Kd. Total and nonspecific binding were defined in the absence and presence, respectively, of 10 µM reference ligand specific for each receptor. After 90 min incubation at room temperature, reactions were terminated by vacuum filtration onto 0.3% polyethyleneimine-pretreated UniFilter-96 GF/C Microplates using a FilterMate harvester, washed three times with ice-cold buffer (50 mM Tris HCl, pH 7.4), dried, treated with MicroScint-O [compound left out] scintillation cocktails, and counted on a MicroBeta counter. Equilibrium inhibition constants (Ki) were calculated from fitted IC50 values using the Cheng–Prusoff equation [14] with the assay-specific radioligand concentration and Kd. TABLE 1. […] Results represented mean ± SEM from a minimum of 3 independent assays, each in triplicate. ND=not determined.

[3] = molecular target: T2, 5-HT4 (Homo sapiens, UniProt Q13639); experiment: biochemical; design: species or system HEK293; PDSP competitive radioligand binding, membranes of transfected HEK293 cells, filtration, Ki by Cheng-Prusoff; settings: read-out: N-desmethyl-xanomeline (PDSP) pKi (converted)
T2 construct: gene HTR4
Procedure: as §1

[4] = molecular target: T3, H4 (Homo sapiens, UniProt Q9H3N8); experiment: competitive radioligand binding, HEK293 membranes
T3 construct: gene HRH4; full-length receptor; HEK293 cell membranes
From the text: competitive radioligand binding, HEK293 membranes on H4

[5] = molecular target: T4, 5-HT6 (Homo sapiens, UniProt P50406); experiment: biochemical; design: species or system HEK293; PDSP competitive radioligand binding, membranes of transfected HEK293 cells, filtration, Ki by Cheng-Prusoff
T4 construct: gene HTR6
Procedure: as §1

[6] = molecular target: T5, DAT (Homo sapiens, UniProt Q01959); experiment: biochemical; design: species or system HEK293; PDSP competitive radioligand binding, membranes of transfected HEK293 cells, filtration, Ki by Cheng-Prusoff
T5 construct: gene SLC6A3
Procedure: as §1

[7] = molecular target: HRH4 (Homo sapiens, UniProt Q9H3N8); experiment: biochemical; design: species or system HEK293; PDSP competitive radioligand binding, membranes of transfected HEK293 cells, filtration, Ki by Cheng-Prusoff
Procedure: as §1

[8] = molecular target: T6, 5-HT1E (Homo sapiens, UniProt P28566); experiment: biochemical; design: species or system HEK293; PDSP competitive radioligand binding, membranes of transfected HEK293 cells, filtration, Ki by Cheng-Prusoff
T6 construct: gene HTR1E
Procedure: as §1

[9] = molecular target: T7, β3 (Homo sapiens, UniProt P13945); experiment: biochemical; design: species or system HEK293; PDSP competitive radioligand binding, membranes of transfected HEK293 cells, filtration, Ki by Cheng-Prusoff
T7 construct: gene ADRB3
Procedure: as §1

[10] = molecular target: T8, HTR1A (Homo sapiens, UniProt P08908); experiment: biochemical; design: species or system HEK293; PDSP competitive radioligand binding, membranes of transfected HEK293 cells, filtration, Ki by Cheng-Prusoff
T8 sequence (P08908 1-422): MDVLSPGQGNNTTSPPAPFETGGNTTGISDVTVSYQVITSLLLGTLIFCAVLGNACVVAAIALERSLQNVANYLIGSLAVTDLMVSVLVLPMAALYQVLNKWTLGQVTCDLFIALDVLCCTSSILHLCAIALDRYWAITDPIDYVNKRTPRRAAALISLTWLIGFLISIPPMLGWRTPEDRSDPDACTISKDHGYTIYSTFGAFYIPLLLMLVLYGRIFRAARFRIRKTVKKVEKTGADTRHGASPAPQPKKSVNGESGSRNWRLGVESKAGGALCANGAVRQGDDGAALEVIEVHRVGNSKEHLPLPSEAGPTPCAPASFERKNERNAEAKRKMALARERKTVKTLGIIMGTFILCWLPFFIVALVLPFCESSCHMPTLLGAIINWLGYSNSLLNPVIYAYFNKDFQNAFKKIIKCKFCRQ
Procedure: as §1

T5 sequence (Q01959 whole entry): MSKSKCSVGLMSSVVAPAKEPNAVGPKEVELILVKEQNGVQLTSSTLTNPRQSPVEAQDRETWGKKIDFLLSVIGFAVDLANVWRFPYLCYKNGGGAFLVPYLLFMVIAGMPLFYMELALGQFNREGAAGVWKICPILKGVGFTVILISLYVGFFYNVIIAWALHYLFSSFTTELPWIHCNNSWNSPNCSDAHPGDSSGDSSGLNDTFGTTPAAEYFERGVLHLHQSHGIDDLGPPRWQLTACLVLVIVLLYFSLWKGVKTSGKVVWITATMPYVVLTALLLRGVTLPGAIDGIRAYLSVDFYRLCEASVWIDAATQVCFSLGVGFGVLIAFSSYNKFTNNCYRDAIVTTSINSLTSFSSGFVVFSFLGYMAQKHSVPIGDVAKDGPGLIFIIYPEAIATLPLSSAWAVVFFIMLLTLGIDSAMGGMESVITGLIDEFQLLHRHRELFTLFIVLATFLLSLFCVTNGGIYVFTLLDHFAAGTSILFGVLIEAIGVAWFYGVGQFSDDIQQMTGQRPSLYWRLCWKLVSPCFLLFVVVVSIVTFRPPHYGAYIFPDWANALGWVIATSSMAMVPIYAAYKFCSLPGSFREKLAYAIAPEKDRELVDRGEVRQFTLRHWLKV
Sequence of DRD1 (P21728 whole entry): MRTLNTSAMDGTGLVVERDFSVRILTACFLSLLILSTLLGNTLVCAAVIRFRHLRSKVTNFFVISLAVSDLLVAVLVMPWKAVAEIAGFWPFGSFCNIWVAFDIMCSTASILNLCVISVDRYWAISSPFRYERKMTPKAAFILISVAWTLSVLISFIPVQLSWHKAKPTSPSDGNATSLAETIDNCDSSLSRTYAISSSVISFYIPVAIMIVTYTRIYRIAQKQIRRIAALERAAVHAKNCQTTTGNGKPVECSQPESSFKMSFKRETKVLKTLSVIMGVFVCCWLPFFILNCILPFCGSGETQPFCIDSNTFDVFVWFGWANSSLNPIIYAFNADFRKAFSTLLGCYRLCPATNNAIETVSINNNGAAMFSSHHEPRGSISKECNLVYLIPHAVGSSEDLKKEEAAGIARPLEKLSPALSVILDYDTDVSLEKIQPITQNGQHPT
T3 sequence (Q9H3N8 whole entry): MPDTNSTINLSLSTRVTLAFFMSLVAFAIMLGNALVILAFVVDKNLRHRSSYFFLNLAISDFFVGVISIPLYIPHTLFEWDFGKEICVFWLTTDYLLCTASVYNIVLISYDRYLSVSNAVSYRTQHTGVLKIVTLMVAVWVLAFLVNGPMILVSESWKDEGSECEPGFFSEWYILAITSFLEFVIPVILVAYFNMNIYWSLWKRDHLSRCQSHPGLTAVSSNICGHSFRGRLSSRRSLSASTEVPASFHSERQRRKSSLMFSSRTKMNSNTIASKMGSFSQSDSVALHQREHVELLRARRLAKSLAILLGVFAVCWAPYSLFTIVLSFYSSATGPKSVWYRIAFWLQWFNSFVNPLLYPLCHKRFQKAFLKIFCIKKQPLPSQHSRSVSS
Sequence of HRH4 (Q9H3N8 whole entry): as above
T7 sequence (P13945 whole entry): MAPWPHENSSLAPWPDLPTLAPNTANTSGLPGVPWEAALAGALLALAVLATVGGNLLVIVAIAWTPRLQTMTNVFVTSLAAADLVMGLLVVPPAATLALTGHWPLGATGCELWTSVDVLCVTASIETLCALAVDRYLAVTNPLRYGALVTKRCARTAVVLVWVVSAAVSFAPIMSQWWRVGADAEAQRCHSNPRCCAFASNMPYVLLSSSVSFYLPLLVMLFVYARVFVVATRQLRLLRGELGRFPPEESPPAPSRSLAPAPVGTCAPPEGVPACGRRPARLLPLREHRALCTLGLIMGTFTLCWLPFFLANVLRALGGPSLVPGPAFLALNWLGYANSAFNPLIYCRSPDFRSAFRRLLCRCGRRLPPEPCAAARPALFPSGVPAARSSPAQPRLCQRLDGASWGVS
T4 sequence (P50406 whole entry): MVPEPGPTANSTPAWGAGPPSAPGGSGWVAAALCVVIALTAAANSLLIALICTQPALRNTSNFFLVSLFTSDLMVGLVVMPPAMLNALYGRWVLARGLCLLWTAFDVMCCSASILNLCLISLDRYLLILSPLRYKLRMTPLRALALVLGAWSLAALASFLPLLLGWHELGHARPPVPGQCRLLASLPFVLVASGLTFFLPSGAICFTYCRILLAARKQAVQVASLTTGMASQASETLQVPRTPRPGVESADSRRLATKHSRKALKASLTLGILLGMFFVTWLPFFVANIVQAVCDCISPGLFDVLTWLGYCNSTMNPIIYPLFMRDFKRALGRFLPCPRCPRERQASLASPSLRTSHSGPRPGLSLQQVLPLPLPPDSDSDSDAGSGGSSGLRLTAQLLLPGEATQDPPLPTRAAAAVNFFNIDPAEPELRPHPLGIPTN
T2 sequence (Q13639 whole entry): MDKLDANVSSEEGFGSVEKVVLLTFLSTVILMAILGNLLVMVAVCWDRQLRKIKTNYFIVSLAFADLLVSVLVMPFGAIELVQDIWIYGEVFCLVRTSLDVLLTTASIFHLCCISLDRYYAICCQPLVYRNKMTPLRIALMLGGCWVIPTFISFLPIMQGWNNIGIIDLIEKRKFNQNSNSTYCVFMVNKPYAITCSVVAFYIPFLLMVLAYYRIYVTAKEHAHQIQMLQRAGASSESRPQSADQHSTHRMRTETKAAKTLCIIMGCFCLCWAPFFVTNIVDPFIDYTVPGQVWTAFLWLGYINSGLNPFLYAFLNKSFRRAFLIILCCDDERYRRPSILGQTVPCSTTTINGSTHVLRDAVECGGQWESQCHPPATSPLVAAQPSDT
T6 sequence (P28566 whole entry): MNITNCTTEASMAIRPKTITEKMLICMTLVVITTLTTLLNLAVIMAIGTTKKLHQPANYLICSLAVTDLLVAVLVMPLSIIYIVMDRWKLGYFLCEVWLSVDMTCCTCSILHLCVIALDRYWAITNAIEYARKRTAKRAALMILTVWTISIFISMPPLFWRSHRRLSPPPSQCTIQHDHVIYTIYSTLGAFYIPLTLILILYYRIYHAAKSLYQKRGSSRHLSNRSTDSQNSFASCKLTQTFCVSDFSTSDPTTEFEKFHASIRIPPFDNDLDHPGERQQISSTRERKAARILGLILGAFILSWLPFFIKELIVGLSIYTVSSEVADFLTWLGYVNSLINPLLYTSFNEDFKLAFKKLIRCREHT

Structure (SMILES) | Ki [1] | Ki [2] | Ki [3] | Ki [4] | Ki [5] | Ki [6] | Ki [7] | Ki [8] | Ki [9] | Ki [10]
CCCCCCOc1nsnc1C1=CCCNC1 [N-desmethylxanomeline] | 0.117 µM | 2.34 µM | 3.72 µM | 0.363 µM | – | – | – | – | – | –
CCCCCCOc1nsnc1C1=CCCN(C)C1 [Xanomeline] | – | – | – | – | 3.98 µM | > 10 µM | > 10 µM | > 10 µM | > 10 µM | 5.89 µM
